These are literature values, as cited in patent US12616202B2, “Agricultural formulations, uses thereof and processes for preparation thereof” (priority 2018, dated 2026).

As to `COCC(=O)N(c1c(C)cccc1C)C(C)C(=O)OC` (stereo not shown) [metalaxyl, Metalaxyl], the water solubility is recorded as 8,400 parts per million.
